Experimental data as given in the NIST ThermoML archive (doi:10.1021/je400917j).
Numbers after ± are expanded uncertainties.

Assay: xn = mol fraction of the nth substance listed
Settings: 101 kPa, Liquid; for mass density: Vibrating tube method

CCCCCC(C)O (stereo unspecified) [2-heptanol] + CC(=O)N(C)C
Settings	mass density, 298.15 K [kg/m3]	mass density, 303.15 K [kg/m3]	mass density, 308.15 K [kg/m3]	mass density, 313.15 K [kg/m3]	viscosity, 298.15 K [mPa·s]	viscosity, 303.15 K [mPa·s]	viscosity, 308.15 K [mPa·s]	viscosity, 313.15 K [mPa·s]
x2 = 0	813.2 ± 0.2	809.5 ± 0.2	805.7 ± 0.2	801.5 ± 0.2	5.3 ± 0.15	4.48 ± 0.13	3.68 ± 0.11	2.96 ± 0.086
x2 = 0.0806	819 ± 0.2	814.8 ± 0.2	810.8 ± 0.2	806.5 ± 0.2	4.53 ± 0.13	3.75 ± 0.11	2.99 ± 0.087	2.51 ± 0.073
x2 = 0.1595	825 ± 0.2	820.7 ± 0.2	816.5 ± 0.2	812.1 ± 0.2	3.77 ± 0.11	3.17 ± 0.092	2.54 ± 0.074	2.13 ± 0.063
x2 = 0.2394	831.6 ± 0.2	827.1 ± 0.2	822.7 ± 0.2	818.1 ± 0.2	3.11 ± 0.09	2.6 ± 0.076	2.18 ± 0.064	1.82 ± 0.054
x2 = 0.3495	841.7 ± 0.2	837.1 ± 0.2	832.6 ± 0.2	827.7 ± 0.2	2.46 ± 0.072	2.08 ± 0.061	1.78 ± 0.053	1.48 ± 0.044
x2 = 0.4393	850.8 ± 0.2	846.2 ± 0.2	841.5 ± 0.2	836.6 ± 0.2	2.07 ± 0.061	1.775 ± 0.052	1.54 ± 0.046	1.28 ± 0.038
x2 = 0.559	864.7 ± 0.2	859.9 ± 0.2	855.1 ± 0.2	850.2 ± 0.2	1.65 ± 0.049	1.436 ± 0.043	1.26 ± 0.038	1.06 ± 0.032
x2 = 0.6494	876.4 ± 0.2	871.7 ± 0.2	866.8 ± 0.2	861.9 ± 0.2	1.41 ± 0.042	1.219 ± 0.037	1.08 ± 0.033	0.95 ± 0.029
x2 = 0.7393	889.4 ± 0.2	884.7 ± 0.2	879.9 ± 0.2	875.1 ± 0.2	1.2 ± 0.036	1.09 ± 0.033	0.98 ± 0.03	0.87 ± 0.027
x2 = 0.8494	907.5 ± 0.2	902.8 ± 0.2	898.1 ± 0.2	893.4 ± 0.2	1.06 ± 0.032	0.97 ± 0.03	0.88 ± 0.027	0.8 ± 0.025
x2 = 0.9393	924.2 ± 0.2	919.7 ± 0.2	915.3 ± 0.2	910.8 ± 0.2	0.98 ± 0.03	0.906 ± 0.028	0.82 ± 0.025	0.76 ± 0.024

CCCCC(C)O (stereo unspecified) [2-hexanol] + CC(=O)N(C)C
Settings	mass density, 298.15 K [kg/m3]	mass density, 303.15 K [kg/m3]	mass density, 308.15 K [kg/m3]	mass density, 313.15 K [kg/m3]	viscosity, 298.15 K [mPa·s]	viscosity, 303.15 K [mPa·s]	viscosity, 308.15 K [mPa·s]	viscosity, 313.15 K [mPa·s]
x2 = 0	810.1 ± 0.2	806.1 ± 0.2	802.1 ± 0.2	798 ± 0.2	4.1 ± 0.15	3.41 ± 0.12	2.82 ± 0.1	2.22 ± 0.083
x2 = 0.0817	816.9 ± 0.2	812.8 ± 0.2	808.6 ± 0.2	804.3 ± 0.2	3.46 ± 0.13	2.89 ± 0.11	2.42 ± 0.09	1.8 ± 0.068
x2 = 0.1606	824 ± 0.2	819.7 ± 0.2	815.4 ± 0.2	810.9 ± 0.2	2.87 ± 0.11	2.41 ± 0.09	2.05 ± 0.077	1.52 ± 0.058
x2 = 0.2405	831.5 ± 0.2	827.1 ± 0.2	822.7 ± 0.2	818.1 ± 0.2	2.35 ± 0.088	2 ± 0.075	1.76 ± 0.067	1.33 ± 0.051
x2 = 0.3506	842.9 ± 0.2	838.3 ± 0.2	833.8 ± 0.2	829 ± 0.2	1.82 ± 0.069	1.58 ± 0.06	1.44 ± 0.055	1.15 ± 0.045
x2 = 0.4404	852.9 ± 0.2	848.2 ± 0.2	843.6 ± 0.2	838.8 ± 0.2	1.54 ± 0.059	1.35 ± 0.052	1.25 ± 0.049	1.04 ± 0.041
x2 = 0.5601	867.5 ± 0.2	862.8 ± 0.2	858.1 ± 0.2	853.3 ± 0.2	1.29 ± 0.05	1.16 ± 0.045	1.06 ± 0.042	0.92 ± 0.037
x2 = 0.6505	879.6 ± 0.2	874.8 ± 0.2	870.1 ± 0.2	865.4 ± 0.2	1.14 ± 0.045	1.03 ± 0.041	0.94 ± 0.037	0.85 ± 0.034
x2 = 0.7405	892.6 ± 0.2	887.8 ± 0.2	883.2 ± 0.2	878.4 ± 0.2	1.03 ± 0.041	0.95 ± 0.038	0.87 ± 0.035	0.8 ± 0.032
x2 = 0.8504	909.9 ± 0.2	905.2 ± 0.2	900.7 ± 0.2	896.2 ± 0.2	0.97 ± 0.038	0.9 ± 0.036	0.82 ± 0.033	0.77 ± 0.031
x2 = 0.9405	925.4 ± 0.2	920.8 ± 0.2	916.5 ± 0.2	912.2 ± 0.2	0.95 ± 0.038	0.882 ± 0.035	0.81 ± 0.033	0.756 ± 0.031
